Laboratory results as given in PMC10192568, “Comparison of pharmacokinetic profiles of seven major bioactive components in normal and non-alcoholic fatty liver disease (NAFLD) rats after oral administration of Ling-Gui-Zhu-Gan decoction by UPLC-MS/MS” (Frontiers in Pharmacology, 2023).
Read-outs that look alike come from different tables or passages of the source.

Columns and labels:
[1] = Stability of the seven components in rat plasma QC samples; format: physicochemical; settings: n = 6; for Stability during 24 h at 4°C, RE: auto sampler
Method: Stability refers to the ability of the components to retain their chemical properties in the matrix. To analyze the stability of all components in the plasma, six replicates of QC samples at three concentrations were hereby prepared under each condition. The stability of the QC samples at three concentrations was analyzed under different storage conditions: −80°C for 30 days, after three freeze–thaw cycles, and 24 h in an auto sampler at 4°C.

[2] = Pharmacokinetic study of LGZGD components in plasma of normal and NAFLD rats after oral administration (UPLC-MS/MS); format: in vivo, Male Sprague–Dawley rats; settings: for AUC(0-inf) / AUC(0-t) / Cmax / Tmax / half-life / MRT last: male, Sprague-Dawley, rat, plasma, po, 23 g/kg, male SD rats, oral LGZGD extract 23 g/kg, mean ± SD, n = 6; for MRT last: read-out: MRT0-t
Method: Male Sprague–Dawley rats, weighing 200–220 g, SPF grade, were purchased from Shanghai Sippr-BK laboratory animal Co. Ltd. (Shanghai, China) and raised in the Laboratory Animal Center of Shanghai University of Traditional Chinese Medicine. The rats were kept in an environmentally controlled condition: on a 12:12 h light–dark cycle (lights on at 7:00 a.m.) with regulated temperature and humidity, at a temperature of 22°C–24°C and a relative humidity of 60–65%. In the experiment, the rats in the normal group were fed a certified standard rat diet and tap water, while those in the model group were fed a high-fat diet for 8 weeks to construct the NAFLD model (high-fat diet: 2% cholesterol, 10% lard, 0.1% sodium cholate, 10% yolk powder, and 77.9% normal diet). The animal experiment program was approved by the Animal Committee of Shanghai University of Traditional Chinese Medicine (License No.: PZSHUTCM201016001).
An Agilent 1290 UPLC system was combined with an Agilent 6460 series MS/MS system (Agilent Technologies, Santa Clara, CA, United States) to quantify the analytes in the ESI-positive ionization mode. The mass spectrum conditions were as follows: a capillary voltage of 4,000 V; a gas flow rate of 10 L/min; a nebulizer of 30 psi; a gas temperature of 350°C; and a Delta EMV(+) of 200 V. Five microliters of the samples was injected into an Agilent SB-C18 column (2.1 mm × 50 mm, 1.8 μm particles). The analytes were separated using the gradient elution method, and the mobile phase was composed of water (0.05% V/V formic acid) (A) and acetonitrile (B) at a flow rate of 0.4 mL/min (0–1 min, 10–10% B; 1–5 min, 10–90% B; 5–7 min, 90–90% B; and 7–7.1 min, B 90–10%; rebalance for 2 min).
A plasma sample of 50 µL was placed in a 1.5 mL centrifuge tube with 10 µL of schisandrin (IS) solution (50 ng/mL) and mixed for 5 min. The samples were successively extracted with 500 µL of ethyl acetate and treated with 250 µL of methanol, which were then mixed for 5 min and centrifuged at 4°C for 10 min (at 18,000 rpm). All the supernatant was absorbed into another 1.5 mL centrifuge tube, dried under a gentle stream of nitrogen at 37°C, and then added with 50 µL of 50% methanol for reconstruction. After being centrifuged at 4°C for 10 min (at 18,000 rpm), 5 µL of the supernatant was extracted and injected into a chromatographic column for analysis, and the chromatograms were recorded.
The rats were randomly divided into the normal group and the model group. According to the preliminary experiment, the dose was adjusted to about eight times the normal dose ([Gu, 2020]; [Li et al., 2023]). […] The animal research program was approved by the Animal Committee of Shanghai University of Traditional Chinese Medicine. At 0, 0.083, 0.25, 0.5, 0.75, 1, 2, 4, 6, 8, 10, 12, 24, and 48 h after dosing, 150 µL blood samples were collected from the rats' orbital venous plexus into centrifuge tubes containing 10 IU of sodium heparin. After being centrifuged at 5,000 rpm (4°C) for 10 min, the plasma was transferred to 1.5 mL polypropylene tubes and stored at −80°C until the plasma samples were analyzed.
Important pharmacokinetic parameters, which included the maximum plasma concentration (C max), time to maximum concentration (T max), half-life (t 1/2), area under the curve (AUC0-t), and total area under the curve (AUC0-∞), were hereby calculated using the DAS 3.2.8 software. Meanwhile, the pharmacokinetic data of the normal and model rats were compared using the SPSS software (version 21.0). Besides, Spearman rank bivariate correlation coefficient was used to determine the correlation between AUC values and UGT1A1 and nine other transporters. All the calculated data were expressed as mean ± SD. When p < 0.05, the difference was considered significant and statistically significant; and when p < 0.01 or <0.001, the difference was considered very significant.

[3] = NAFLD rats compared with normal rats, oral LGZGD

In the case of `CC1(C)[C@@H](O[C@H]2O[C@H](C(=O)O)[C@@H](O)[C@H](O)[C@H]2O[C@@H]2O[C@H](C(=O)O)[C@@H](O)[C@H](O)[C@H]2O)CC[C@]2(C)[C@H]3C(=O)C=C4[C@@H]5C[C@@](C)(C(=O)O)CC[C@]5(C)CC[C@@]4(C)[C@]3(C)CC[C@@H]12` [Glycyrrhizic acid, glycyrrhizic acid], the “Stability during 24 h at 4°C, RE” value ([1]; high QC level) is reported as −3.3%, the “Stability during 24 h at 4°C, RE” value ([1]; low QC level) is reported as −1.6% and the “Stability during 24 h at 4°C, RE” value ([1]; medium QC level) is reported as −5.6%. For the same compound, the “Three freeze–thaw cycles, RE” value ([1]; high QC level) was 9.7%, the “−80°C for 30 days, RE” value ([1]; high QC level) was 2.7% and the “Three freeze–thaw cycles, RE” value ([1]; low QC level) was −5.9%. For the same compound, the “−80°C for 30 days, RE” value ([1]; low QC level) was −1.0%, the “Three freeze–thaw cycles, RE” value ([1]; medium QC level) was −3.7% and the “−80°C for 30 days, RE” value ([1]; medium QC level) was 1.7%. For the same compound, the “AUC0-∞ value decreased” value [2, 3] was 70.8%, the “C max value decreased” value [2, 3] was 77.4% and the AUC(0-inf) ([2]; Model (NAFLD) group) was 40800 ± 25000 ng·h/mL. It also gave an AUC(0-t) ([2]; Model (NAFLD) group) of 40700 ± 25100 ng·h/mL, a Cmax ([2]; Model (NAFLD) group) of 2240 ± 1200 ng/mL and a Tmax ([2]; Model (NAFLD) group) of 8.1 ± 4.9 h. The half-life ([2]; Model (NAFLD) group) was 5.4 ± 1.4 h, the MRT last ([2]; Model (NAFLD) group) was 16 ± 8 h and the AUC(0-inf) ([2]; Normal group) was 82700 ± 10000 ng·h/mL. It also gave an AUC(0-t) ([2]; Normal group) of 81000 ± 10500 ng·h/mL, a Cmax ([2]; Normal group) of 6420 ± 2240 ng/mL and a Tmax ([2]; Normal group) of 10.4 ± 1.7 h. The half-life ([2]; Normal group) was 6.3 ± 3 h and the MRT last ([2]; Normal group) was 13.7 ± 3.3 h.
